46 molecules from article PMC11995724, “Antibiotic target discovery by integrated phenotypic and activity-based profiling of electrophilic fragments” (Cell chemical biology, 2025) can be followed below.

The structures appear in SMILES notation.

The data set can be described thus: in vitro. The following applies: human, hek293t cells.
For `Cn1cc(C=C(C#N)C(=O)N2CCCC2)c(-c2cc3ccccc3o2)n1` [9-D18, 3-[3-(1-benzofuran-2-yl)-1-methyl-1H-pyrazol-4-yl]-2-(pyrrolidine-1-carbonyl)prop-2-enenitrile], the viability (in general, a read-out of living cells in per cent, often relative to untreated cells) at 48 h, 25 µM was determined as 106%. The figure for `CC(=O)Nc1ccc(C=C(C#N)C(=O)Nc2cccc(C)c2C)cc1` [9-D19, 2-cyano-N-(2,3-dimethylphenyl)-3-(4-acetamidophenyl)prop-2-enamide] is 107%; for `N#CC(=Cc1ccco1)C(=O)Nc1cc2c(cc1Cl)NC(=O)CO2` [9-D20, N-(6-chloro-3-oxo-3,4-dihydro-2H-1,4-benzoxazin-7-yl)-2-cyano-3-(furan-2-yl)prop-2-enamide] it is 87%; for `C=CCNC(=O)C(C#N)=Cc1ccc(C)c(C)c1` [9-D21, 2-cyano-3-(3,4-dimethylphenyl)-N-(prop-2-en-1-yl)prop-2-enamide] it is 110%. The figure for `COCCNC(=O)C(C#N)=Cc1ccc(O)cc1` [9-D22, 2-cyano-3-(4-hydroxyphenyl)-N-(2-methoxyethyl)prop-2-enamide] is 110%. Turning to `N#CC(=Cc1ccc2[nH]c(=O)[nH]c2c1)C(=O)NC1CCCC1` [9-E03, 2-cyano-N-cyclopentyl-3-(2-oxo-2,3-dihydro-1H-1,3-benzodiazol-5-yl)prop-2-enamide], the viability at 48 h, 25 µM stood at 121%.

Turning to `Cc1ccc(NC(=O)C(C#N)=Cc2ccc(C(C)(C)C)cc2)cc1C` [9-E04, 3-(4-tert-butylphenyl)-2-cyano-N-(3,4-dimethylphenyl)prop-2-enamide], the viability at 48 h, 25 µM was 104%.

Regarding `CC(C#N)Oc1ccc(C=C(C#N)C(=O)Nc2ccccc2Cl)cc1` (stereo not shown) [9-E05, N-(2-chlorophenyl)-2-cyano-3-[4-(1-cyanoethoxy)phenyl]prop-2-enamide], the viability at 48 h, 25 µM worked out at 111%. To `Cc1ccccc1C(C)NC(=O)C(C#N)=Cc1ccco1` (stereo not shown) [9-E06, 2-cyano-3-(furan-2-yl)-N-[1-(2-methylphenyl)ethyl]prop-2-enamide] belongs 107%; to `Cc1nn(-c2ccccc2)c(C)c1C=C(C#N)C(=O)Nc1nccs1` [9-E07, 2-cyano-3-(3,5-dimethyl-1-phenyl-1H-pyrazol-4-yl)-N-(1,3-thiazol-2-yl)prop-2-enamide], 119%; to `COc1ccc2cc(C=C(C#N)C(=O)Nc3nccs3)ccc2c1` [9-E08, 2-cyano-3-(6-methoxynaphthalen-2-yl)-N-(1,3-thiazol-2-yl)prop-2-enamide], 63.3%.

In the case of `CCCCNC(=O)C(C#N)=Cc1cc(C)c(O)c(C)c1` [9-E09, N-butyl-2-cyano-3-(4-hydroxy-3,5-dimethylphenyl)prop-2-enamide], the viability at 48 h, 25 µM was 111%.

Consider `COc1ccc(C=C(C#N)C(=O)Nc2cccc3ccccc23)cc1` [9-E10, 2-cyano-3-(4-methoxyphenyl)-N-(naphthalen-1-yl)prop-2-enamide], for which the viability at 48 h, 25 µM stood at 105%. For the molecule `CC(C)NC(=O)C(C#N)=Cc1ccc2c(c1)OCCO2` [9-E11, 2-cyano-3-(2,3-dihydro-1,4-benzodioxin-6-yl)-N-(propan-2-yl)prop-2-enamide], the viability at 48 h, 25 µM was 118%. Take `Cc1cccc(NC(=O)C(C#N)=Cc2ccc(F)cc2)c1` [9-E12, 2-cyano-3-(4-fluorophenyl)-N-(3-methylphenyl)prop-2-enamide]: the viability at 48 h, 25 µM was found to be 90.9%. The figure for `CC(C)NC(=O)C(C#N)=Cc1c(Cl)cccc1Cl` [9-E13, 2-cyano-3-(2,6-dichlorophenyl)-N-(propan-2-yl)prop-2-enamide] is 87%. For `N#CC(=Cc1ccc(N)cc1)C(=O)N1CCCC1` [9-E14, 3-(4-aminophenyl)-2-(pyrrolidine-1-carbonyl)prop-2-enenitrile], the viability at 48 h, 25 µM is 101%. To `N#CC(=Cc1ccc(Cl)c([N+](=O)[O-])c1)C(=O)NCc1ccco1` [9-E15, 3-(4-chloro-3-nitrophenyl)-2-cyano-N-[(furan-2-yl)methyl]prop-2-enamide] belongs 6.64%. The figure for `N#CC(=Cc1ccco1)C(=O)Nc1ccc2nc(S)oc2c1` [9-E16, 2-cyano-3-(furan-2-yl)-N-(2-sulfanyl-1,3-benzoxazol-6-yl)prop-2-enamide] is 110%; for `CCCCNC(=O)C(C#N)=Cc1cccs1` [9-E17, N-butyl-2-cyano-3-(thiophen-2-yl)prop-2-enamide] it is 117%.

On to `COc1cc(Cl)ccc1CNC(=O)C(C#N)=Cc1ccco1` [9-E18, N-[(4-chloro-2-methoxyphenyl)methyl]-2-cyano-3-(furan-2-yl)prop-2-enamide], for which the viability at 48 h, 25 µM turned out to be 109%. The figure for `Cc1ccc(C=C(C#N)C(=O)Nc2cc(Cl)ccc2Cl)s1` [9-E19, 2-cyano-N-(2,5-dichlorophenyl)-3-(5-methylthiophen-2-yl)prop-2-enamide] is 107%; for `N#CC(=Cc1cnc2ccc(C#N)cn12)C(=O)Nc1ccc(F)cc1` [9-E20, 2-cyano-3-{6-cyanoimidazo[1,2-a]pyridin-3-yl}-N-(4-fluorophenyl)prop-2-enamide] it is 99.4%; for `Cc1ccccc1NC(=O)C(C#N)=Cc1ccc(N2CCCCC2)cc1` [9-E21, 2-cyano-N-(2-methylphenyl)-3-[4-(piperidin-1-yl)phenyl]prop-2-enamide] it is 91.8%.

`N#CC(=Cc1ccc(Cl)cc1)C(=O)Nc1ccc2c(c1)OCCO2` [9-E22, 3-(4-chlorophenyl)-2-cyano-N-(2,3-dihydro-1,4-benzodioxin-6-yl)prop-2-enamide]: the viability at 48 h, 25 µM came to 106%. The figure for `N#CC(=Cc1ccc(O)cc1)C(=O)Nc1cc(Cl)ccc1Cl` [9-F03, 2-cyano-N-(2,5-dichlorophenyl)-3-(4-hydroxyphenyl)prop-2-enamide] is 87%; for `COCC(C)NC(=O)C(C#N)=Cc1cc2cc(F)ccc2o1` (stereo not shown) [9-F04, 2-cyano-3-(5-fluoro-1-benzofuran-2-yl)-N-(1-methoxypropan-2-yl)prop-2-enamide] it is 99.8%. To `C=CCNC(=O)C(C#N)=Cc1ccc(C)s1` [9-F05, 2-cyano-3-(5-methylthiophen-2-yl)-N-(prop-2-en-1-yl)prop-2-enamide] belongs 108%; to `N#CC(=Cc1cccc(Oc2ccccc2)c1)C(=O)N1CCCC1` [9-F06, 3-(3-phenoxyphenyl)-2-(pyrrolidine-1-carbonyl)prop-2-enenitrile], 46.3%. To `CCn1nc(C)c(C=C(C#N)C(=O)Nc2ccccc2Cl)c1C` [9-F07, N-(2-chlorophenyl)-2-cyano-3-(1-ethyl-3,5-dimethyl-1H-pyrazol-4-yl)prop-2-enamide] belongs 110%; to `N#CC(=CC1=Cc2ccccc2OC1)C(=O)NCc1ccccc1` [9-F08, N-benzyl-3-(2H-chromen-3-yl)-2-cyanoprop-2-enamide], 114%. Consider `COCC(C)NC(=O)C(C#N)=Cc1cccc(F)c1F` (stereo not shown) [9-F09, 2-cyano-3-(2,3-difluorophenyl)-N-(1-methoxypropan-2-yl)prop-2-enamide], for which the viability at 48 h, 25 µM was 114%.

In the case of `COc1ccc(C=C(C#N)C(=O)Nc2ccc(C(=O)O)cc2)cc1O` [9-F10, 4-[2-cyano-3-(3-hydroxy-4-methoxyphenyl)prop-2-enamido]benzoic acid], the viability at 48 h, 25 µM stood at 120%.

In the case of `Cc1nn(C)c(C)c1C=C(C#N)C(=O)Nc1ccccc1Cl` [9-F11, N-(2-chlorophenyl)-2-cyano-3-(1,3,5-trimethyl-1H-pyrazol-4-yl)prop-2-enamide], the viability at 48 h, 25 µM came to 110%. For `CC(=Cc1ccccc1)C=C(C#N)C(=O)NC1CC1` [9-F12, 2-cyano-N-cyclopropyl-4-methyl-5-phenylpenta-2,4-dienamide], the viability at 48 h, 25 µM worked out at 92.3%. To `N#CC(=Cc1ccccc1Cl)C(=O)NCc1ccccc1` [9-F13, N-benzyl-3-(2-chlorophenyl)-2-cyanoprop-2-enamide] belongs 80.5%. To `CC(=O)Nc1ccsc1C=C(C#N)C(=O)Nc1ccc(F)cc1` [9-F14, 2-cyano-3-(3-acetamidothiophen-2-yl)-N-(4-fluorophenyl)prop-2-enamide] belongs 98.4%. The figure for `N#CC(=Cc1sc2ccccc2c1Cl)C(=O)Nc1nccs1` [9-F15, 3-(3-chloro-1-benzothiophen-2-yl)-2-cyano-N-(1,3-thiazol-2-yl)prop-2-enamide] is 117%; for `N#CC(=Cc1ccco1)C(=O)NCc1ccc(-c2cccnc2)cc1` [9-F16, 2-cyano-3-(furan-2-yl)-N-{[4-(pyridin-3-yl)phenyl]methyl}prop-2-enamide] it is 100%. For the molecule `N#CC(=Cc1ccc(N2CCOCC2)cc1)C(=O)Nc1nccs1` [9-F17, 2-cyano-3-[4-(morpholin-4-yl)phenyl]-N-(1,3-thiazol-2-yl)prop-2-enamide], the viability at 48 h, 25 µM was determined as 95.6%. To `CNC(=O)Cn1ccc2ccc(NC(=O)C(C#N)=Cc3ccco3)cc21` [9-F18, 2-cyano-3-(furan-2-yl)-N-{1-[(methylcarbamoyl)methyl]-1H-indol-6-yl}prop-2-enamide] belongs 109%; to `COc1ccc(NC(=O)C(C#N)=Cc2ccco2)cc1` [9-F19, 2-cyano-3-(furan-2-yl)-N-(4-methoxyphenyl)prop-2-enamide], 94.6%; to `N#CC(=Cc1ccc(Oc2cnccn2)cc1)C(=O)NC1CCCC1` [9-F20, 2-cyano-N-cyclopentyl-3-[4-(pyrazin-2-yloxy)phenyl]prop-2-enamide], 95.3%.

`N#CC(=Cc1cccc(O)c1)C(=O)NCc1ccco1` [9-F21, 2-cyano-N-[(furan-2-yl)methyl]-3-(3-hydroxyphenyl)prop-2-enamide]: the viability at 48 h, 25 µM amounted to 119%.

With `COc1cc(C=C(C#N)C(=O)Nc2cccc3ncccc23)ccc1O` [9-F22, 2-cyano-3-(4-hydroxy-3-methoxyphenyl)-N-(quinolin-5-yl)prop-2-enamide], the viability at 48 h, 25 µM worked out at 112%. Regarding `CCCNC(=O)C(C#N)=Cc1ccns1` [9-G03, 2-cyano-N-propyl-3-(1,2-thiazol-5-yl)prop-2-enamide], the viability at 48 h, 25 µM is 128%.
